Test results as given in patent US20030013078A1, “HIV-1 reporter viruses and their use in assaying anti-viral compounds” (priority 2000, published 2003).

Tests used:
Assay type in all cases: cell-based, HIV-1
[1] = test system: JRFNFLuc; assay: Inhibition of JRFNFLuc reporter virus infection in MT-2 #18 cells (firefly luciferase activity); conditions: for EC50: Human immunodeficiency virus 1, read-out: EC50, inhibition of viral replication
Procedure: (§1) MT-2 #18 cells were pelleted and infected with virus stocks at a multiplicity of infection (MOI) of 0.01 at 37° C. for 2hrs. Viruses were removed and cells were washed twice with 1×PBS before re-suspending in a final concentration of 10,000 cells/100 uL. Infectivity and drug sensitivity assays were carried out in 96 well tissue culture plates, and kinetic studies were carried out in T-25 flasks. Cell supernatants were harvested on day 0, 2, 3, 5 or 6, and passaged virus was harvested on day 2 or 3. The activity for the capsid protein p24 was analyzed according to manufacturer's protocol utilizing the Zeptometrix Retrotek product (Zeptometrix Incorporated, Buffalo, N.Y.).
Large volume cultures of MT-2 #18 cells were prepared and kept at a concentration of less than 0.5×10^6 cells per milliliter in RPMI media with 10% fetal calf serum. Test compounds were plated into a 96 well tissue culture treated clear bottom black plates (Corning Incorporated, Corning, N.Y.) at a concentration of 3 mM in 20 microliters of dionized water and 5% dimethyl sulfoxide. MT-2 #18 cells were pelleted via low speed centrifugation and re-suspended in fresh media. Reporter viruses were added to the fresh media and cells to obtain the appropriate MOI of 0.01 and a cell concentration of 1×10^4 in 160 microliters. Twenty microliters per well of 2×complete modified eagle's media was then added to compensate for the dionized water volume. 180 microliters of this mixture is then added to each test compound well and control wells. Following a 5 to 6 day incubation at 37° C., media was aspirated from the wells utilizing a 12-channel manifold.
The replication ability of the NL4Rluc and JRFNRLuc viruses were then compared to that of the JRFNFLuc virus. JRFNFLuc differs from JRFNRLuc in that it encodes the firefly luciferase gene instead of the renilla luciferase gene. JRFNFLuc was constructed in a fashion similar to that previously reported (Chen et al., 1994). Infection of T-cell lines by JRFNFLuc was carried out exactly as that was done for NL4Rluc and JRFNRLuc viruses. […] Upon passing the day 6 post infection JRFNFLuc supernatant onto uninfected MT-2 #18 cells, no firefly luciferase activity or p24 production could be detected up to seven days post inoculation (data not shown). […] The finding that this virus was not capable of inhibition by a late stage HIV-1 replication cycle inhibitor is further evidence of it not being able to replicate.

[2] = test system: JRFNSEAP; assay: Inhibition of JRFNSEAP reporter virus replication in MT-2 #18 cells (SEAP activity); conditions: Human immunodeficiency virus 1, provirus JRFNSEAP (CCR5-tropic), MOI 0.01, read-out: EC50, inhibition of viral replication
Procedure: as §1
(§2) Large volume cultures of MT-2 #18 cells were prepared and kept at a concentration of less than 0.5×10^6 cells per milliliter in RPMI media with 10% fetal calf serum. Test compounds were plated into a 96 well tissue culture treated clear bottom black plates (Corning Incorporated, Corning, N.Y.) at a concentration of 3 mM in 20 microliters of dionized water and 5% dimethyl sulfoxide. […]
Secreted placental alkaline phosphatase (SEAP) activity was measured using the a 1,2 dioxetane alkaline phosphatase substrate called CSPD (Tropix PE Applied Biosystems, Bedford, Mass.). […] Light emission can be measured utilizing a scintillation counter or a luminometer. […]

[3] = test system: NL4Rluc; assay: Inhibition of NL4Rluc reporter virus replication in MT-2 #18 cells (renilla luciferase activity); conditions: Human immunodeficiency virus 1, read-out: EC50, inhibition of viral replication
Procedure: as §1, §2
(§3) Renilla luciferase activity was measured using the Promega Dual Luciferase Reporter kit (Promega Corp., Madison, Wis.). […] Following the substrate addition, plates were immediately sealed and read for 5 seconds per well in a Wallac Microbeta 1450 (Perkin-Elmer Wallac Incorporated, Gaithersburg, Md.) in the luminescence mode. […]

[4] = test system: JRFNRLuc; assay: Inhibition of JRFNRLuc reporter virus replication in MT-2 #18 cells (renilla luciferase activity); conditions: Human immunodeficiency virus 1, read-out: EC50, inhibition of viral replication
Procedure: as §1, §2, §3

Row | Compound | EC50 [1] [nM] | EC50 [2] [nM] | EC50 [3] [nM] | EC50 [4] [nM] | Non-inhibiting concentration on JRFNFLuc relative to the EC50 on the replication competent JRFNRLuc ([1]; 10 uM versus JRFNRLuc) | Inhibition of JRFNFLuc virus ([1]; at 10 uM)
1 | O=C1Nc2ccc(Cl)cc2[C@@](C#CC2CC2)(C(F)(F)F)O1 [Efavirenz] | 0.18 | 0.1 | 0.36 | 0.12 |  | 
2 | CC(C)CN(C[C@@H](O)[C@H](Cc1ccccc1)NC(=O)O[C@H]1CCOC1)S(=O)(=O)c1ccc(N)cc1 [Amprenavir] | > 10000 | 21.5 | 19.4 | 6.9 | over 1000 fold | unable to inhibit
